Where a name gives a salt, the structure may show the parent alone.
Key:
hPAOX = hPAOX (Homo sapiens (Human), UniProt Q6QHF9); test: Human PAOX assay (HyPerBlu chemiluminescent detection of hydrogen peroxide); format: biochemical; conditions: 60 pM recombinant PAOX, 20 μM N-acetylspermine substrate
Outline: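 His-tagged recombinant PAOX expressed in sf9 insect cells was used at 60 pM, with 20 μM N-acetylspermine as substrate. Hydrogen peroxide formed by the reaction was detected by chemiluminescence from a boronate probe (HyPerBlu). Inhibition appears as lower luminescence.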

SMOX [1] = molecular target: T1, SMOX (Homo sapiens (Human), UniProt Q9NWM0); test: Cellular Thermal Shift Assay (CETSA) with alphaLISA detection of intact SMOX in A549 cells; format: cell-based; conditions: 1 hour compound incubation at 37° C., heated to 55° C. for 5 minutes
T1 sequence (Q9NWM0 whole entry): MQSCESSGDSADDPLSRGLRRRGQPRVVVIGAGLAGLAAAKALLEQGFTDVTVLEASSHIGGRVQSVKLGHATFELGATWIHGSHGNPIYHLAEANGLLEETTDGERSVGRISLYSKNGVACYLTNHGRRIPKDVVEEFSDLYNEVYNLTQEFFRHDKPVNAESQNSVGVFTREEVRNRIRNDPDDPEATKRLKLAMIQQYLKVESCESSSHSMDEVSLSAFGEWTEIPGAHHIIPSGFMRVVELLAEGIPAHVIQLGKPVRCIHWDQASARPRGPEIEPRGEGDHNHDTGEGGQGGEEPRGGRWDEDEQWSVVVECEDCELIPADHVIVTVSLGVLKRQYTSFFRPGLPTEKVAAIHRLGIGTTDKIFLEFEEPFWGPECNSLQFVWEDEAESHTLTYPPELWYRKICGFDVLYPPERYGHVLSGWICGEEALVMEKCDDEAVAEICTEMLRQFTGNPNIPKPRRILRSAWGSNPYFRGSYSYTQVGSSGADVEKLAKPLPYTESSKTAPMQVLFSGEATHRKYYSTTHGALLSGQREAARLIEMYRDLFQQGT
From the text: The Cellular Thermal Shift Assay (CETSA) is a biophysical assay based on the principle of ligand-induced thermal stabilization of target proteins, meaning that a protein denaturing temperature will change upon ligand interaction. Thus, by heating samples (i.e. cells, ex vivo samples) to different temperatures, and quantifying conformationally intact proteins we can detect compound-protein interactions after compound treatment. CETSA allows direct monitoring of ligand binding to a specific target (target engagement). In our study, we have developed a suitable detection system that will detect intact SMOX using the alphaLISA. […] The detection of compound -SMOX ligand binding is performed using A549 cells. This adenocarcinoma human alveolar basal epithelial cell line expresses high levels of SMOX. Their use has been widely reported in the literature with respect to the investigation of the SMOX pathway. Using SMOX high-expressing cells with CETSA and alphaLISA systems provides the optimal platform for screening small molecules for SMOX inhibition.
A549 cells were seeded at a density of 0.05-0.1×10^6 cells/mL in T175 flasks and cultured in 25 mL of culture medium consisting in RPMI 1640 medium (Gibco) supplemented with 10% fetal bovine serum (Gibco). Cells were passaged twice per week and used for CETSA assays before reaching confluency. One day prior to the CETSA cells were seeded in 384-well white assay plates (Corning) at 15000 cells per well. Briefly, cells were washed with PBS (Life Technologies Europe BV) and dissociated by adding 2 mL TrypLE™ Select (Life Technologies Europe BV). After 5 min at 37° C., cells were resuspended in culture medium, counted using a ViCell XR cell counter (ViCell) and seeded in the 384-well plates.
Compounds were pre-diluted in PBS to a final concentration of […] and 1% DMSO and serially diluted in PBS 1% DMSO. For compound-cell incubation, medium in the 384 well plates was replaced with 30 μL of serially diluted compounds. After incubation at 37° C. for 1 hour the liquid was removed and plates were heated to 55° C. for 5 minutes and then transferred to ice for 5 minutes. After the cooling step, cells were lysed by adding 15 μL 1× alphaLISA-buffer (Perkin Elmer) containing anti-SMOX monoclonal antibody #2 and anti-SMOX Fab-fragment #33 mixture at a concentration of 5 and 0.5 nM respectively. After one hour at RT, 5 μL anti-6×His alphaLISA acceptor beads (50 mg/L, AL128C, Perkin Elmer) were added to the wells followed by an additional incubation of one hour at RT. Then 5 μL anti-rabbit IgG alpha donor beads (200 mg/L was added to the wells. After one hour incubation at RT the alpha signal was read using an alpha compatible reader. MDL75257 (M2949, Sigma) was used as positive control for compound-SMOX interaction. Compound-SMOX interaction is detected through the comparison of the high alpha signal of the negative control with the much lower signal of the wells that contain SMOX binding compounds.

SMOX [2] = molecular target: T1, SMOX; test: Human SMOX assay (HyPerBlu chemiluminescent detection of hydrogen peroxide); format: biochemical; conditions: 2.5 nM full length hSMOX, spermine substrate, 1 h at room temperature, luminescence read; read-out: SMOx_IC50
Outline: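 Full-length N-His human SMOX (2.5 nM, E. coli-expressed) was incubated 1 h at room temperature with 30 µM spermine, 11-point compound dilutions and 1.25% DMSO in pH 7.4 HEPES/NaCl/EGTA buffer. H2O2 was detected by HyPerBlu chemiluminescence after 30 min, and IC50 came from dose–response fits.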

hPAOX, sequence (Q6QHF9 whole entry): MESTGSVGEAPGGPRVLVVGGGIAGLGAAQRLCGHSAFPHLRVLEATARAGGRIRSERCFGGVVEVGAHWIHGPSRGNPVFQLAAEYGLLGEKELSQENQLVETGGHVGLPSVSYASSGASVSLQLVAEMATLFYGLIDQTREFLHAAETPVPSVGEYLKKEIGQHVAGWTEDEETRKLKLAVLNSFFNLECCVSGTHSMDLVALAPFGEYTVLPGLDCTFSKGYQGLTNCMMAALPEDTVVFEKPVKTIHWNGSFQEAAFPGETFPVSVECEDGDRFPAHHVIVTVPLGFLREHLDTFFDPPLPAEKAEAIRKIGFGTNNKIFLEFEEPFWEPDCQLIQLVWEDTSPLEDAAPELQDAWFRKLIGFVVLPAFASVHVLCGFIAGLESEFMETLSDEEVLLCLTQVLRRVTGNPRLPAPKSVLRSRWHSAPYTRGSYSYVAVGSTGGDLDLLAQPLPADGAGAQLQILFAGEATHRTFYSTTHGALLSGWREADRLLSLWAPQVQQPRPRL

Compound	IC50 (hPAOX) [nM]	SMOx % recovery CETSA (SMOX [1]) [%]	IC50 (SMOX [2]) [nM]
Cn1ccnc1CCCNC(=O)c1cc2nc(-c3ccccc3)cc(-c3ccccc3)n2n1 [Example 1, N-(3-(1-Methyl-1H-imidazol-2-yl)propyl)-5,7-diphenylpyrazolo[1,5-a]pyrimidine-2-carboxamide]	397	12	46
CCN1CCC[C@@H]1CNC(=O)c1cc2nc(-c3ccccc3)cc(-c3ccccc3)n2n1 [Example 15, (R)—N-((1-Ethylpyrrolidin-2-yl)methyl)-5,7-diphenylpyrazolo[1,5-a]pyrimidine-2-carboxamide]	6320	4	192
O=C(NCC1CCc2nccn2C1)c1cc2nc(-c3ccccc3)cc(-c3ccccc3)n2n1 (centres unmarked) [Example 20, 5,7-Diphenyl-N-((5,6,7,8-tetrahydroimidazo[1,2-a]pyridin-6-yl)methyl)pyrazolo[1,5-a]pyrimidine-2-carboxamide]	306	10	65
O=C(NCCCc1c[nH]cn1)c1cc2nc(-c3ccccc3)cc(-c3ccccc3)n2n1 [Example 27, N-(3-(1H-Imidazol-4-yl)propyl)-5,7-diphenylpyrazolo[1,5-a]pyrimidine-2-carboxamide]	49	43	15
O=C(NCCCn1ccnc1)c1cc2nc(-c3ccccc3)cc(-c3ccccc3)n2n1 [Example 43, N-(3-(1H-Imidazol-1-yl)propyl)-5,7-diphenylpyrazolo[1,5-a]pyrimidine-2-carboxamide]	739	74	10
CC(C)Nc1cc(-c2ccccc2)nc2cc(C(=O)NCCCn3ccnc3)nn12 [Example 57, N-(3-(1H-Imidazol-1-yl)propyl)-7-(isopropylamino)-5-phenylpyrazolo[1,5-a]pyrimidine-2-carboxamide]	4440	1	176
O=C(NCCCn1ccnc1)c1cc2nc(-c3ccccc3)cc(N3CCCC(F)C3)n2n1 (centres unmarked) [Example 62, N-(3-(1H-Imidazol-1-yl)propyl)-7-(3-fluoropiperidin-1-yl)-5-phenylpyrazolo[1,5-a]pyrimidine-2-carboxamide]	6040	87	49
CN1CC(NC(=O)c2cc3nc(-c4ccccc4)cc(N4CCCCC4)n3n2)C1 [Example 68, N-(1-methylazetidin-3-yl)-5-phenyl-7-(piperidin-1-yl)pyrazolo[1,5-a]pyrimidine-2-carboxamide trifluoroacetate]	5880	39	147
O=C(NCCCn1ccnc1)c1cc2nc(-c3ccccc3)cc(-c3cccc(F)c3)n2n1 [Example 78, N-(3-(1H-imidazol-1-yl)propyl)-7-(3-fluorophenyl)-5-phenylpyrazolo[1,5-a]pyrimidine-2-carboxamide]	1410	0	36
O=C(NCC1CCCN1)c1cc2nc(-c3ccccc3)cc(-c3ccccc3)n2n1 (centres unmarked) [Example 117, 5,7-diphenyl-(pyrrolidin-2-ylmethyl)pyrazolo[1,5-a]pyrimidine-2-carboxamide]	197	–	142
CNCCCNC(=O)c1cc2nc(-c3ccccc3)cc(-c3ccccc3)n2n1 [Example 118, N-(3-(methylamino)propyl)-5,7-diphenylpyrazolo[1,5-a]pyrimidine-2-carboxamide]	103	–	230
NCCNC(=O)c1cc2nc(-c3ccccc3)cc(-c3ccccc3)n2n1 [Example 119, N-(2-aminoethyl)-5,7-diphenylpyrazolo[1,5-a]pyrimidine-2-carboxamide hydrochloride]	2400	–	801
CC(CN)CNC(=O)c1cc2nc(-c3ccccc3)cc(-c3ccccc3)n2n1 (centres unmarked) [Example 120, N-(3-amino-2-methylpropyl)-5,7-diphenylpyrazolo[1,5-a]pyrimidine-2-carboxamide hydrochloride]	1220	–	582
O=C(NCCN1CCOCC1)c1cc2nc(-c3ccccc3)cc(-c3ccccc3)n2n1 [Example 122, N-(2-morpholinoethyl)-5,7-diphenylpyrazolo[1,5-a]pyrimidine-2-carboxamide]	> 31200	–	20600
Cc1cc(-c2ccccc2)nc2cc(C(=O)NCCCn3ccnc3)nn12 [Example 123, N-(3-(1H-imidazol-1-yl)propyl)-7-methyl-5-phenylpyrazolo[1,5-a]pyrimidine-2-carboxamide]	4040	–	9770

More lines, in order of falling IC50 (hPAOX), values ahead:

IC50 (hPAOX) [nM]	SMOx % recovery CETSA (SMOX [1]) [%]	IC50 (SMOX [2]) [nM]	Compound
8610	2	117	CN1CCC(C)(CNC(=O)c2cc3nc(-c4ccccc4)cc(-c4ccccc4)n3n2)C1 (centres unmarked) [Example 21, N-((1,3-Dimethylpyrrolidin-3-yl)methyl)-5,7-diphenylpyrazolo[1,5-a]pyrimidine-2-carboxamide]
6850	29	24	O=C(NCCCn1ccnc1)c1cc2nc(-c3ccccc3)cc(N3CCCCC3)n2n1 [Example 58, N-(3-(1H-Imidazol-1-yl)propyl)-5-phenyl-7-(piperidin-1-yl)pyrazolo[1,5-a]pyrimidine-2-carboxamide]
2330	6	241	O=C(NCCCn1ccnc1)c1cc2nc(-c3ccccc3)cc(N3CCC(F)CC3)n2n1 [Example 63, N-(3-(1H-Imidazol-1-yl)propyl)-7-(4-fluoropiperidin-1-yl)-5-phenylpyrazolo[1,5-a]pyrimidine-2-carboxamide]
960	52	49	CN1CC(NC(=O)c2cc3nc(-c4ccccc4)cc(-c4ccccc4)n3n2)C1 [Example 23, N-(1-Methylazetidin-3-yl)-5,7-diphenylpyrazolo[1,5-a]pyrimidine-2-carboxamide]
942	26	45	Cc1nccn1CCCNC(=O)c1cc2nc(-c3ccccc3)cc(-c3ccccc3)n2n1 [Example 2, N-(3-(2-Methyl-1H-imidazol-1-yl)propyl)-5,7-diphenylpyrazolo[1,5-a]pyrimidine-2-carboxamide]
680	0	161	CN(C)CCCNC(=O)c1cc2nc(-c3ccccc3)cc(-c3ccccc3)n2n1 [Example 18, N-(3-(Dimethylamino)propyl)-5,7-diphenylpyrazolo[1,5-a]pyrimidine-2-carboxamide]
641	–	416	O=C(NCC1CCNC1)c1cc2nc(-c3ccccc3)cc(-c3ccccc3)n2n1 (centres unmarked) [Example 121, 5,7-diphenyl-N-(pyrrolidin-3-ylmethyl)pyrazolo[1,5-a]pyrimidine-2-carboxamide]
307	2	158	CN1CCC(CNC(=O)c2cc3nc(-c4ccccc4)cc(-c4ccccc4)n3n2)C1 (centres unmarked) [Example 19, N-((1-Methylpyrrolidin-3-yl)methyl)-5,7-diphenylpyrazolo[1,5-a]pyrimidine-2-carboxamide]
233	0	231	O=C(NCCn1ccnc1)c1cc2nc(-c3ccccc3)cc(-c3ccccc3)n2n1 [Example 12, N-(2-(1H-Imidazol-1-yl)ethyl)-5,7-diphenylpyrazolo[1,5-a]pyrimidine-2-carboxamide]
